According to patent publication US10479780B2, “Aminopyrazole derivatives” (Chugai Seiyaku Kabushiki Kaisha, priority 2015, dated 2019):

Tests used:
Assay type in all cases: biochemical
human Yes1 enzyme = molecular target: T1, human Yes1 enzyme (Homo sapiens, UniProt P07947); experiment: Yes1 enzyme inhibitory activity (time-resolved fluorometry, biotinylated peptide phosphorylation); conditions: biotinylated peptide phosphorylation, read-out: YES_IC50
T1 construct: made in house
Procedure, shortened: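 Inhibition was expressed against a compound-free control to give IC50, using TR-FRET read-out (Eu-cryptate anti-pTyr antibody, streptavidin-XL665).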

human Src enzyme = molecular target: T2, human Src enzyme (Homo sapiens, UniProt P12931); experiment: Src enzyme inhibitory activity (time-resolved fluorometry, biotinylated peptide phosphorylation); conditions: biotinylated peptide phosphorylation, read-out: SRC_IC50
T2 construct: purchased Carna Biosciences, Inc. 08-173
T2 sequence (P12931 whole entry): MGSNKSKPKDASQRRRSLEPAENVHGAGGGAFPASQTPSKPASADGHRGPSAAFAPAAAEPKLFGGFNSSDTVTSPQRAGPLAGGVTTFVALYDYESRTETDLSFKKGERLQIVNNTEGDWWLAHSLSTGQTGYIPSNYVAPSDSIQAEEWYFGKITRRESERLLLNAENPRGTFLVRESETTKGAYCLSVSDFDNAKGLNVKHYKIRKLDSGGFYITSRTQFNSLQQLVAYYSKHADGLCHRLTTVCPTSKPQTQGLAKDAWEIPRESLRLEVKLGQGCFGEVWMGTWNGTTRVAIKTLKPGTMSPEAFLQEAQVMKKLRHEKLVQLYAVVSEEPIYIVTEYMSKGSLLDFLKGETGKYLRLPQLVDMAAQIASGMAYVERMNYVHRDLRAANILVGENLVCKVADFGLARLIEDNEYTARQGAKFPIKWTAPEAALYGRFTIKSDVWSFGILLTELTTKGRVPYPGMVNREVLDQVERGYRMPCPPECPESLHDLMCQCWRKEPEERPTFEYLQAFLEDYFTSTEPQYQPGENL
Procedure, shortened: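 Compounds were tested for blocking tyrosine phosphorylation of a biotinylated peptide substrate by recombinant human Src. Phosphorylated product was quantified by time-resolved fluorometry using europium cryptate and XL665 conjugates, and IC50 was calculated against the compound-free control.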

human Lck enzyme = molecular target: T3, human Lck enzyme (Homo sapiens, UniProt P06239); experiment: Lck enzyme inhibitory activity (time-resolved fluorometry, biotinylated peptide phosphorylation); conditions: biotinylated peptide phosphorylation, read-out: LCK_IC50
T3 construct: purchased Carna Biosciences, Inc. 08-170
T3 sequence (P06239 whole entry): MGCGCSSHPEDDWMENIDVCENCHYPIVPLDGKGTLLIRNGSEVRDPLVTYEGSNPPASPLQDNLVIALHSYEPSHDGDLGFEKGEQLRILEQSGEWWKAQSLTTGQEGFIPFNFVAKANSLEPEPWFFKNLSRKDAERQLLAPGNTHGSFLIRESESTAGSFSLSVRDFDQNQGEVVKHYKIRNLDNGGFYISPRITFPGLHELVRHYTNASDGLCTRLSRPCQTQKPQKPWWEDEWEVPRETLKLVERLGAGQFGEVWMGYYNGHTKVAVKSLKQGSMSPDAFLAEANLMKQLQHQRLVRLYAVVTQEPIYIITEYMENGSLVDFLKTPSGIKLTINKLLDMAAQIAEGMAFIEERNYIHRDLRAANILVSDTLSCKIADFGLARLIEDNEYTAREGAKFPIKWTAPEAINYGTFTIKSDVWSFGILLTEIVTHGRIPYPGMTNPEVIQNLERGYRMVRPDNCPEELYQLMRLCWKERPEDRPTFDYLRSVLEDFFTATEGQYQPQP
Procedure, shortened: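 Readout pairs a europium cryptate-labelled anti-phosphotyrosine antibody with XL665-streptavidin, measured by time-resolved fluorescence. IC50 derived from percent inhibition against untreated controls.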

T1 sequence (P07947 whole entry): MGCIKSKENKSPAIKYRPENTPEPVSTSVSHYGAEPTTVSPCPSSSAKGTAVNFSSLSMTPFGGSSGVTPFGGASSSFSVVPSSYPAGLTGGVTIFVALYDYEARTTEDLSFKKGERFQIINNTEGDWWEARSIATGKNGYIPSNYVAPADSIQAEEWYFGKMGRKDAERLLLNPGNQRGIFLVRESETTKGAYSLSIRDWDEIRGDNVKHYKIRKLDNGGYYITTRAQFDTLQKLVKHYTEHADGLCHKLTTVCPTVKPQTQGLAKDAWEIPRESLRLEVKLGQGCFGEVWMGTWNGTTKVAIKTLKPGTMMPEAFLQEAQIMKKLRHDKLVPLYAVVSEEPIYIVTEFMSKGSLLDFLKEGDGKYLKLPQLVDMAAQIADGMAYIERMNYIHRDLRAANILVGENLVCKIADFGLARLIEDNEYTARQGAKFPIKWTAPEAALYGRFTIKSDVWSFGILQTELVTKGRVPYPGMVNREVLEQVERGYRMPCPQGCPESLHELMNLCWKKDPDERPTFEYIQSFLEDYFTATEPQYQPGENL

Compound	IC50 (human Yes1 enzyme)	IC50 (human Src enzyme)	IC50 (human Lck enzyme)
Cc1cc2cc(C(=O)c3cnn(-c4c(C)cc(Oc5ccccc5F)cc4F)c3N)[nH]c2cc1N1CCCS1(=O)=O [Example 4-2-114, [5-amino-1-[2-fluoro-4-(2-fluorophenoxy)-6-methylphenyl]pyrazol-4-yl]-[6-(1,1-dioxo-1,2-thiazolidin-2-yl)-5-methyl-1H-indol-2-yl]methanone]	5 nM	72 nM	16 nM
Cc1cc2cc(C(=O)c3cnn(-c4c(C)cc(Oc5cccc(F)c5F)cc4F)c3N)[nH]c2cc1N1CCCS1(=O)=O [Example 4-2-115, [5-amino-1-[4-(2,3-difluorophenoxy)-2-fluoro-6-methylphenyl]pyrazol-4-yl]-[6-(1,1-dioxo-1,2-thiazolidin-2-yl)-5-methyl-1H-indol-2-yl]methanone]	4.1 nM	63 nM	16 nM
Cc1cc2cc(C(=O)c3cnn(-c4cnc(Oc5c(F)cccc5F)cc4C)c3N)[nH]c2cc1N1CCCS1(=O)=O [Example 4-2-116, [5-amino-1-[6-(2,6-difluorophenoxy)-4-methylpyridin-3-yl]pyrazol-4-yl]-[6-(1,1-dioxo-1,2-thiazolidin-2-yl)-5-methyl-1H-indol-2-yl]methanone]	1.5 nM	43 nM	9.3 nM
Cc1cc2cc(C(=O)c3cnn(-c4cnc(Oc5ccccc5Cl)cc4C)c3N)[nH]c2cc1N1CCCS1(=O)=O [Example 4-2-117, [5-amino-1-[6-(2-chlorophenoxy)-4-methylpyridin-3-yl]pyrazol-4-yl]-[6-(1,1-dioxo-1,2-thiazolidin-2-yl)-5-methyl-1H-indol-2-yl]methanone]	0.6 nM	21 nM	4.8 nM
Cc1cc2cc(C(=O)c3cnn(-c4cnc(Oc5cccc(Cl)c5)cc4C)c3N)[nH]c2cc1N1CCCS1(=O)=O [Example 4-2-118, [5-amino-1-[6-(3-chlorophenoxy)-4-methylpyridin-3-yl]pyrazol-4-yl]-[6-(1,1-dioxo-1,2-thiazolidin-2-yl)-5-methyl-1H-indol-2-yl]methanone]	5.7 nM	110 nM	35 nM
Cc1cc2cc(C(=O)c3cnn(-c4cnc(Oc5ccc(F)cc5)cc4C)c3N)[nH]c2cc1N1CCCS1(=O)=O [Example 4-2-119, [5-amino-1-[6-(4-fluorophenoxy)-4-methylpyridin-3-yl]pyrazol-4-yl]-[6-(1,1-dioxo-1,2-thiazolidin-2-yl)-5-methyl-1H-indol-2-yl]methanone]	7.4 nM	70 nM	23 nM
COc1cc2cc(C(=O)c3cnn(-c4c(C)cc(Oc5ccccc5F)cc4F)c3N)[nH]c2cc1N1CCCS1(=O)=O [Example 4-2-120, [5-amino-1-[2-fluoro-4-(2-fluorophenoxy)-6-methylphenyl]pyrazol-4-yl]-[6-(1,1-dioxo-1,2-thiazolidin-2-yl)-5-methoxy-1H-indol-2-yl]methanone]	1 nM	28 nM	4 nM
COc1cc2cc(C(=O)c3cnn(-c4cnc(Oc5c(F)cccc5F)cc4C)c3N)[nH]c2cc1N1CCCS1(=O)=O [Example 4-2-121, [5-amino-1-[6-(2,6-difluorophenoxy)-4-methylpyridin-3-yl]pyrazol-4-yl]-[6-(1,1-dioxo-1,2-thiazolidin-2-yl)-5-methoxy-1H-indol-2-yl]methanone]	0.54 nM	8 nM	2.1 nM
Cc1cc2cc(C(=O)c3cnn(-c4ccc(Oc5ccccc5F)cc4C)c3N)[nH]c2cc1N1CCOCC1 [Example 4-2-122, [5-amino-1-[4-(2-fluorophenoxy)-2-methylphenyl]pyrazol-4-yl]-(5-methyl-6-morpholin-4-yl-1H-indol-2-yl)methanone]	3.6 nM	34 nM	7.3 nM
Cc1cc2cc(C(=O)c3cnn(-c4cnc(Oc5ccccc5F)cc4C)c3N)[nH]c2cc1N1CCOCC1 [Example 4-2-123, [5-amino-1-[6-(2-fluorophenoxy)-4-methylpyridin-3-yl]pyrazol-4-yl]-(5-methyl-6-morpholin-4-yl-1H-indol-2-yl)methanone]	1.9 nM	37 nM	5.8 nM
Cc1cc2cc(C(=O)c3cnn(-c4cnc(Oc5c(F)cccc5F)cc4C)c3N)[nH]c2cc1N1CCOCC1 [Example 4-2-124, [5-amino-1-[6-(2,6-difluorophenoxy)-4-methylpyridin-3-yl]pyrazol-4-yl]-(5-methyl-6-morpholin-4-yl-1H-indol-2-yl)methanone]	4.1 nM	34 nM	6.9 nM
Cc1cc2cc(C(=O)c3cnn(-c4cnc(Oc5c(F)cccc5F)cc4C)c3N)[nH]c2cc1N1CCC(N2CCOCC2)CC1 [Example 4-2-125, [5-amino-1-[6-(2,6-difluorophenoxy)-4-methylpyridin-3-yl]pyrazol-4-yl]-[5-methyl-6-(4-morpholin-4-ylpiperidin-1-yl)-1H-indol-2-yl]methanone]	2.4 nM	28 nM	2.6 nM
CCN(c1cc2[nH]c(C(=O)c3cnn(-c4cnc(Oc5c(F)cccc5F)cc4C)c3N)cc2cc1F)S(C)(=O)=O [Example 4-2-126]	1.3 nM	13 nM	2 nM
Cc1cc(Oc2c(F)cccc2F)ncc1-n1ncc(C(=O)c2cc3cc(F)c(N(C4CCOCC4)S(C)(=O)=O)cc3[nH]2)c1N [Example 4-2-127, N-[2-[5-amino-1-[6-(2,6-difluorophenoxy)-4-methylpyridin-3-yl]pyrazole-4-carbonyl]-5-fluoro-1H-indol-6-yl]-N-(oxan-4-yl)methanesulfonamide]	1.3 nM	23 nM	3.7 nM
Cc1cc(Oc2c(F)cccc2F)ncc1-n1ncc(C(=O)c2cc3cc(F)c(N(CCN4CCOCC4)S(C)(=O)=O)cc3[nH]2)c1N [Example 4-2-128, N-[2-[5-amino-1-[6-(2,6-difluorophenoxy)-4-methylpyridin-3-yl]pyrazole-4-carbonyl]-5-fluoro-1H-indol-6-yl]-N-(2-morpholin-4-ylethyl)methanesulfonamide]	1.2 nM	8.6 nM	2.7 nM
Cc1cc(Oc2ccccc2F)ncc1-n1ncc(C(=O)c2cc3cc(NS(C)(=O)=O)c(OCCN4CCOCC4)cc3[nH]2)c1N [Example 4-2-129]	0.59 nM	3.2 nM	1.4 nM

Other lines, results leading:

IC50 (human Yes1 enzyme)	IC50 (human Src enzyme)	IC50 (human Lck enzyme)	Compound
1.4 nM	34 nM	4.5 nM	Cc1cc(Oc2ccccc2F)ncc1-n1ncc(C(=O)c2cc3cc(N(CCN4CCOCC4)S(C)(=O)=O)c(O)cc3[nH]2)c1N [Example 4-2-130]
4.3 nM	92 nM	24 nM	Cc1cc(Oc2cccc(F)c2F)cc(F)c1-n1ncc(C(=O)c2cc3cc(F)c(N)cc3[nH]2)c1N [Example 4-3-001, {5-amino-1-[4-(2,3-difluorophenoxy)-2-fluoro-6-methylphenyl]pyrazol-4-yl}-(6-amino-5-fluoro-1H-indol-2-yl)methanone]
6.3 nM	21 nM	8.2 nM	Cc1cc(Oc2c(F)cccc2F)ncc1-n1ncc(C(=O)c2cc3cc(OC(F)F)c(C4CCNCC4)cc3[nH]2)c1N [Example 4-4-001, (5-amino-1-(6-(2,6-difluorophenoxy)-4-methylpyridin-3-yl)-1H-pyrazol-4-yl)(5-(difluoromethoxy)-6-(piperidin-4-yl)-1H-indol-2-yl)methanone]
1.2 nM	120 nM	33 nM	Cc1cc(Oc2ccccc2F)ncc1-n1ncc(C(=O)c2cc3cc(F)c(NS(=O)(=O)N4CCOCC4)cc3[nH]2)c1N [Example 4-5-001, N-{2-{5-amino-1-[6-(2-fluorophenoxy)-4-methylpyridin-3-yl]pyrazole-4-carbonyl}-5-fluoro-1H-indol-6-yl}morpholine-4-sulfonamide]
0.76 nM	49 nM	23 nM	Cc1cc(Oc2ccccc2F)ccc1-n1ncc(C(=O)c2cc3cc(F)c(NS(=O)(=O)N4CCOCC4)cc3[nH]2)c1N [Example 4-5-002, N-[2-[5-amino-1-[4-(2-fluorophenoxy)-2-methylphenyl]pyrazole-4-carbonyl]-5-fluoro-1H-indol-6-yl]morpholine-4-sulfonamide]
0.67 nM	29 nM	11 nM	Cc1cc(Oc2ccccc2F)ccc1-n1ncc(C(=O)c2cc3cc(F)c(NS(=O)(=O)NC4CCOCC4)cc3[nH]2)c1N [Example 4-5-003, [5-amino-1-[4-(2-fluorophenoxy)-2-methylphenyl]pyrazol-4-yl]-[5-fluoro-6-(oxan-4-ylsulfamoylamino)-1H-indol-2-yl]methanone]
3.3 nM	65 nM	41 nM	Cc1cc(Oc2ccccc2F)ccc1-n1ncc(C(=O)c2cc3cc(F)c(NS(=O)(=O)NC(C)C)cc3[nH]2)c1N [Example 4-5-004, [5-amino-1-[4-(2-fluorophenoxy)-2-methylphenyl]pyrazol-4-yl]-[5-fluoro-6-(propan-2-ylsulfamoylamino)-1H-indol-2-yl]methanone]
0.51 nM	29 nM	11 nM	Cc1cc(Oc2ccccc2F)ccc1-n1ncc(C(=O)c2cc3cc(F)c(NS(=O)(=O)NC4COC4)cc3[nH]2)c1N [Example 4-5-005, [5-amino-1-[4-(2-fluorophenoxy)-2-methylphenyl]pyrazol-4-yl]-[5-fluoro-6-(oxetan-3-ylsulfamoylamino)-1H-indol-2-yl]methanone]
